Results on 21 compounds are retold here after ChEMBL document CHEMBL5500355, “Quantum chemistry calculation-aided discovery of potent small-molecule mimics of glutathione peroxidases for the treatment of cisplatin-induced hearing loss” (Eur J Med Chem, 2024).

Series [1] in a line: Glutathione peroxidase like activity of compound assessed as fold increase by measuring reduction in NADPH level at 100 uM by microplate reader assay relative to SPI-1005. The series is classed as ADME.
Series [2] can be described thus: Glutathione peroxidase like activity of compound assessed as fold increase by measuring reduction in NADPH level at 10 uM by microplate reader assay relative to SPI-1005. The series is classed as ADME.
Series [3] is filed under the species Mus musculus. Kind of series: Inhibition of cisplatin induced hair loss in neonatal C57BL/6 mouse cochlear explants assessed as reduction in cochlear hair cells loss in middle turns pretreated with compound for 2 hrs followed by cisplatin addition and measured after 24 hrs post cisplatin treatment. As to conditions: Cochlea, time 26.0 hrs. The series is classed as functional.

The species named for series [4] is Mus musculus. Kind of series: Inhibition of cisplatin induced hair loss in neonatal C57BL/6 mouse cochlear explants assessed as reduction in cochlear hair cells loss in base turns pretreated with compound for 2 hrs followed by cisplatin addition and measured after 24 hrs post cisplatin treatment. The format is functional. As to conditions: Cochlea, time 26.0 hrs.

For series [5], the species on record is Mus musculus. Kind of series: Inhibition of cisplatin induced hair loss in neonatal C57BL/6 mouse cochlear explants assessed as reduction in cochlear hair cells loss in apex turns pretreated with compound for 2 hrs followed by cisplatin addition and measured after 24 hrs post cisplatin treatment. The format is functional. To be noted: Cochlea, time 26.0 hrs.

For series [6], the system named is Mus musculus. Kind of series: Prevention of cisplatin induced hearing loss in C57BL/6 mouse assessed as reduction in ABR threshold increase at 80 mg/kg, po administered daily for one week with simultaneous cisplatin addition on day 3 and 7 and measured after 1 week post last cisplatin treatment. To be noted: time 2.0 weeks. The series is classed as functional, organism-based.

Series [7] has as its system Mus musculus. Kind of series: Prevention of cisplatin induced hair loss in C57BL/6 mouse at 80 mg/kg, po administered daily for one week with simultaneous cisplatin addition on day 3 and 7 and measured after 1 week post last cisplatin treatment by myosin 7a-staining based assay. The series is classed as functional, organism-based. To be noted: time 2.0 weeks.
Series [8] concerns Mus musculus. Kind of series: Protection against cisplatin induced oxidative stress in C57BL/6 mouse assessed as reduction in MDA level at 80 mg/kg, po administered daily for one week with simultaneous cisplatin addition on day 3 and 7 and measured after 1 week post last cisplatin treatment by ELISA. The format is functional, organism-based. As to conditions: time 2.0 weeks. In general terms: In an ELISA, binding on a coated surface is turned into a signal by an enzyme label.

The test system of series [9] is Mus musculus. Briefly: Protection against cisplatin induced oxidative stress in C57BL/6 mouse assessed as reduction in IL-6 level at 80 mg/kg, po administered daily for one week with simultaneous cisplatin addition on day 3 and 7 and measured after 1 week post last cisplatin treatment by ELISA. The format is functional, organism-based. To be noted: time 2.0 weeks.

Series [10] has as its system Mus musculus. Briefly: Protection against cisplatin induced oxidative stress in C57BL/6 mouse assessed as reduction in TNF-alpha level at 80 mg/kg, po administered daily for one week with simultaneous cisplatin addition on day 3 and 7 and measured after 1 week post last cisplatin treatment by ELISA. The series is classed as functional, organism-based. To be noted: time 2.0 weeks.

Series [11] relates to Mus musculus. Briefly: Protection against cisplatin induced oxidative stress in C57BL/6 mouse assessed as increase in SOD level at 80 mg/kg, po administered daily for one week with simultaneous cisplatin addition on day 3 and 7 and measured after 1 week post last cisplatin treatment by ELISA. The format is functional, organism-based. As to conditions: time 2.0 weeks.
For series [12], the species on record is Mus musculus. Kind of series: Inhibition of cisplatin induced ferroptosis in neonatal C57BL/6 mouse cochlear explants assessed as reduction in mitochondrial iron accumulation at 100 uM by Mito-FerroGreen staining based confocal microscopy analysis. The format is functional, organism-based. To be noted: Cochlea.
The test system of a further series is HeLa. Kind of series: Effect on cisplatin induced antitumor activity in human HeLa cells by CCK8 assay. The series is classed as functional, cell-based. (Formazan colour is commonly taken as a measure of viable cells.)
The test system of a further series is Tu 686. Briefly: Effect on cisplatin induced antitumor activity in human Tu 686 cells by CCK8 assay. The format is functional, cell-based.
In the next series the test system is 6-10B. Briefly: Effect on cisplatin induced antitumor activity in human 6-10B cells by CCK8 assay. The format is functional, cell-based.
The species entered for series [13] is Mus musculus. Briefly: Inhibition of cisplatin induced oxidative stress in neonatal C57BL/6 mouse cochlear explants at 100 uM by MitoSOX Red staining based confocal fluorescence microscope analysis. The series is classed as functional, organism-based. As to conditions: Cochlea.
The species entered for series [14] is Mus musculus. Briefly: Inhibition of cisplatin induced apoptosis in neonatal C57BL/6 mouse cochlear explants assessed as reduction in cleaved caspase 3 positive hair cells in basal turn of cochlea at 100 uM by parvalbumin staining based assay. The series is classed as functional.
The species named for series [15] is Mus musculus. Kind of series: Inhibition of cisplatin induced apoptosis in neonatal C57BL/6 mouse cochlear explants assessed as reduction in cleaved caspase 3 positive hair cells in middle turn of cochlea at 100 uM by parvalbumin staining based assay. The series is classed as functional.
The species named for series [16] is Mus musculus. Kind of series: Inhibition of cisplatin induced apoptosis in neonatal C57BL/6 mouse cochlear explants assessed as reduction in cleaved caspase 3 positive hair cells in apex turn of cochlea at 100 uM by parvalbumin staining based assay. The series is classed as functional.
Series [17] can be described thus: Solubility of compound in water by liquid chromatography method. The series is classed as physicochemical.

Structures are written as SMILES. Values after ≈ are worked out from the molar mass of the structure shown. Active and inactive are the calls of the source.

On to `O=c1c2cccc(Br)c2[se]n1-c1ccncc1`, for which the “fold change (FC)” value in [1] is listed as 3.4; in series [2], 7.7.

As to `O=c1c2cccc(Cl)c2[se]n1-c1ccccc1`, the “fold change (FC)” value in [1] is 3.5; in series [2], 8.6.

Regarding `O=c1c2ccccc2[se]n1-c1ccccc1`, the inhibition entry in the series listed under Mus musculus [3], in the series listed under Mus musculus [4], in the series filed under Mus musculus [5] and in the series listed under Mus musculus [12] was “Active” throughout. The outcome in the series on Mus musculus [6], in the series on Mus musculus [7], in the series with Mus musculus [8], in the series on Mus musculus [9], in the series with Mus musculus [10] and with Mus musculus [11] was Active.

For the compound `O=c1c2ccc(Br)cc2[se]n1-c1ccccc1`, the entries for the “fold change (FC)” value in series [1] and in series [2] were 0.6 and 0.7, respectively.

Take `COc1ccccc1-n1[se]c2ccccc2c1=O`: the “fold change (FC)” value was found to be 1.1 in series [1] and 0.9 in [2].

In general, solubility refers to the dissolved amount per volume that the medium holds. A high value points to much dissolved substance. Regarding `COc1cccc2c(=O)n(-c3cccnc3)[se]c12`, the inhibition entry in the series filed under Mus musculus [3], in the series filed under Mus musculus [4], in the series listed under Mus musculus [5], in the series filed under Mus musculus [13], in the series listed under Mus musculus [14] and in the series listed under Mus musculus [15] was “Active” in each case. The inhibition result in the series listed under Mus musculus [16] and in the series listed under Mus musculus [12] was “Active” each time. In addition, the result with Mus musculus [6], in the series on Mus musculus [7], with Mus musculus [8], with Mus musculus [9], with Mus musculus [10] and in the series on Mus musculus [11] was Active. For the same compound, the result in the series on HeLa, with Tu 686 and in the series on 6-10B was inactive. Besides, the “fold change (FC)” value in series [1] came out at 3.5; in series [2] it was 7.7. The same compound registered a solubility in [17] of 1800 µg/mL (≈ 5900 µM).

With `COc1cccc(-n2[se]c3ccccc3c2=O)c1`, the results for the “fold change (FC)” value in series [1] and in [2] were 1 and 0.7, respectively.

For the compound `O=c1c2cccc(Br)c2[se]n1-c1ccccn1`, the entries for the “fold change (FC)” value in series [1] and in series [2] were 4.7 and 9.1, respectively.

With `COc1cccc2[se]n(-c3ccccc3)c(=O)c12`, the entries for the “fold change (FC)” value in series [1] and in series [2] were 1.2 and 1.8, respectively.

With `COc1cccc2c(=O)n(-c3ccncc3)[se]c12`, the “fold change (FC)” value in series [1] was 3; in [2], 7.4.

With `COc1ccc(-n2[se]c3ccccc3c2=O)cc1`, the entries for the “fold change (FC)” value in series [1] and in [2] were 1.1 and 1.3, respectively.

As for `COc1ccc2c(=O)n(-c3ccccc3)[se]c2c1`, the “fold change (FC)” value in series [1] is on record as 0.5; in series [2], 0.2.

Take `O=c1c2cccc(Br)c2[se]n1-c1cccnc1`: the inhibition entry in the series listed under Mus musculus [3], in the series filed under Mus musculus [4] and in the series listed under Mus musculus [5] was “Active” in each case. In addition, the “fold change (FC)” value in [1] is reported as 3.5; in series [2], 9.8.

In the case of `O=c1c2cccc(Br)c2[se]n1-c1ccccc1`, the inhibition entry in the series listed under Mus musculus [3], in the series filed under Mus musculus [4] and in the series listed under Mus musculus [5] was “Active” each time. In addition, the “fold change (FC)” value in series [1] worked out at 3.5; in series [2], 8.8.

Consider `COc1cccc2c(=O)n(-c3ccccc3)[se]c12`, for which the inhibition entry in the series filed under Mus musculus [3], in the series listed under Mus musculus [4] and in the series filed under Mus musculus [5] was “Active” in each case. In addition, the figures for the “fold change (FC)” value in series [1] and in series [2] were 4.2 and 7.4, respectively. Besides, the concentration in solution in [17] (solubility) was 2.5 µg/mL (≈ 8.22 µM).

`O=c1c2cccc([N+](=O)[O-])c2[se]n1-c1ccccc1`: the entries for the “fold change (FC)” value in series [1] and in series [2] were 3.3 and 7.2, respectively.

Take `COc1cccc2c(=O)n(-c3ccccn3)[se]c12`: the “fold change (FC)” value in [1] worked out at 3.8; in [2] it was 6.9.

Consider `O=c1c2cc(Br)ccc2[se]n1-c1ccccc1`, for which the results for the “fold change (FC)” value in series [1] and in [2] were 1.1 and 0.5, respectively.

On to `COc1ccc2[se]n(-c3ccccc3)c(=O)c2c1`, for which the “fold change (FC)” value in series [1] is on record as 0.8; in series [2] it was 0.5.

Take `O=c1c2cccc(F)c2[se]n1-c1ccccc1`: the “fold change (FC)” value in series [1] is 2.5; in series [2], 4.5.

Turning to `Cc1cccc2c(=O)n(-c3ccccc3)[se]c12`, the results for the “fold change (FC)” value in [1] and in series [2] were 2.5 and 4.6, respectively.
